Source: US20130274127A1, “GENE EXPRESSION MARKERS FOR PREDICTION OF RESPONSE TO PHOSPHOINOSITIDE 3-KINASE INHIBITORS” (GENOMIC HEALTH, INC., priority 2012, published 2013)
Where two headings read alike, the source gives them in different places.

Assays:
[1] = system: HCT-15; experiment: NCI-60 in vitro drug sensitivity testing (SRB); type: cell-based; conditions: Homo sapiens, HCT-15, read-out: GDC-0941 GI50
Text: (§1) Cell lines used in this study were obtained from the National Cancer Institute Developmental Therapeutics program (NCI DTP) and were maintained in RPMI 1640 media (Invitrogen, Grand Island, N.Y.) containing 10% Fetal Bovine Serum (ATCC, Manassas, Va.). Cell lines were used within six months of receipt from the NCI DTP, abrogating the need for reauthentication.
(§2) 14, 2010 and Aug. 9, 2010.

[2] = system: MDA-MB-435; experiment: NCI-60 in vitro drug sensitivity testing (SRB); type: cell-based; conditions: Homo sapiens, MDA-MB-435, read-out: GDC-0941 GI50
Text: as §1, §2

[3] = system: NCI-H226; experiment: NCI-60 in vitro drug sensitivity testing (SRB); type: cell-based; conditions: Homo sapiens, NCI-H226, read-out: GDC-0941 GI50
Text: as §1, §2

[4] = system: SNB-19; experiment: NCI-60 in vitro drug sensitivity testing (SRB); type: cell-based; conditions: Homo sapiens, SNB-19, read-out: GDC-0941 GI50
Text: as §1, §2

[5] = system: MALME-3M; experiment: NCI-60 in vitro drug sensitivity testing (SRB); type: cell-based; conditions: Homo sapiens, read-out: GDC-0941 GI50
Text: as §1, §2

[6] = system: IGROV1; experiment: NCI-60 in vitro drug sensitivity testing (SRB); type: cell-based; conditions: Homo sapiens, IGROV-1, read-out: GDC-0941 GI50
Text: as §1, §2

[7] = system: NCI-H322M; experiment: NCI-60 in vitro drug sensitivity testing (SRB); type: cell-based; conditions: Homo sapiens, read-out: GDC-0941 GI50
Text: as §1, §2

[8] = system: SK-OV-3; experiment: NCI-60 in vitro drug sensitivity testing (SRB); type: cell-based; conditions: Homo sapiens, SK-OV-3, read-out: GDC-0941 GI50
Text: as §1, §2

[9] = system: K-562; experiment: NCI-60 in vitro drug sensitivity testing (SRB); type: cell-based; conditions: Homo sapiens, K562, read-out: GDC-0941 GI50
Text: as §1, §2

[10] = system: A549/ATCC; experiment: NCI-60 in vitro drug sensitivity testing (SRB); type: cell-based; conditions: Homo sapiens, read-out: GDC-0941 GI50
Text: as §1, §2

[11] = system: HOP-62; experiment: NCI-60 in vitro drug sensitivity testing (SRB); type: cell-based; conditions: Homo sapiens, HOP-62, read-out: GDC-0941 GI50
Text: as §1, §2

[12] = system: OVCAR-3; experiment: NCI-60 in vitro drug sensitivity testing (SRB); type: cell-based; conditions: Homo sapiens, OVCAR-3, read-out: GDC-0941 GI50
Text: as §1, §2

[13] = system: CAKI-1; experiment: NCI-60 in vitro drug sensitivity testing (SRB); type: cell-based; conditions: Homo sapiens, CAKI-1, read-out: GDC-0941 GI50
Text: as §1, §2

[14] = system: PC-3; experiment: NCI-60 in vitro drug sensitivity testing (SRB); type: cell-based; conditions: Homo sapiens, PC-3, read-out: GDC-0941 GI50
Text: as §1, §2

[15] = system: BT-549; experiment: NCI-60 in vitro drug sensitivity testing (SRB); type: cell-based; conditions: Homo sapiens, BT-549, read-out: GDC-0941 GI50
Text: as §1, §2

[16] = system: UACC-257; experiment: NCI-60 in vitro drug sensitivity testing (SRB); type: cell-based; conditions: Homo sapiens, UACC-257, read-out: GDC-0941 GI50
Text: as §1, §2

[17] = system: T-47D; experiment: NCI-60 in vitro drug sensitivity testing (SRB); type: cell-based; conditions: Homo sapiens, T47D, read-out: GDC-0941 GI50
Text: as §1, §2

[18] = system: NCI-H522; experiment: NCI-60 in vitro drug sensitivity testing (SRB); type: cell-based; conditions: Homo sapiens, NCI-H522, read-out: GDC-0941 GI50
Text: as §1, §2

[19] = system: HCT-116; experiment: NCI-60 in vitro drug sensitivity testing (SRB); type: cell-based; conditions: Homo sapiens, HCT-116, read-out: GDC-0941 GI50
Text: as §1, §2

[20] = system: NCI-H460; experiment: NCI-60 in vitro drug sensitivity testing (SRB); type: cell-based; conditions: Homo sapiens, NCI-H460, read-out: GDC-0941 GI50
Text: as §1, §2

[21] = system: LOX IMVI; experiment: NCI-60 in vitro drug sensitivity testing (SRB); type: cell-based; conditions: Homo sapiens, read-out: GDC-0941 GI50
Text: as §1, §2

[22] = system: RPMI-8226; experiment: NCI-60 in vitro drug sensitivity testing (SRB); type: cell-based; conditions: Homo sapiens, RPMI-8226, read-out: GDC-0941 GI50
Text: as §1, §2

[23] = system: HL-60(TB); experiment: NCI-60 in vitro drug sensitivity testing (SRB); type: cell-based; conditions: Homo sapiens, read-out: GDC-0941 GI50
Text: as §1, §2

[24] = system: SF-268; experiment: NCI-60 in vitro drug sensitivity testing (SRB); type: cell-based; conditions: Homo sapiens, SF-268, read-out: GDC-0941 GI50
Text: as §1, §2

[25] = system: SNB-75; experiment: NCI-60 in vitro drug sensitivity testing (SRB); type: cell-based; conditions: Homo sapiens, SNB-75, read-out: GDC-0941 GI50
Text: as §1, §2

[26] = system: HOP-92; experiment: NCI-60 in vitro drug sensitivity testing (SRB); type: cell-based; conditions: Homo sapiens, HOP-92, read-out: GDC-0941 GI50
Text: as §1, §2

[27] = system: MDA-MB-468; experiment: NCI-60 in vitro drug sensitivity testing (SRB); type: cell-based; conditions: Homo sapiens, MDA-MB-468, read-out: GDC-0941 GI50
Text: as §1, §2

[28] = system: OVCAR-5; experiment: NCI-60 in vitro drug sensitivity testing (SRB); type: cell-based; conditions: Homo sapiens, OVCAR-5, read-out: GDC-0941 GI50
Text: as §1, §2

[29] = system: SK-MEL-5; experiment: NCI-60 in vitro drug sensitivity testing (SRB); type: cell-based; conditions: Homo sapiens, SK-MEL-5, read-out: GDC-0941 GI50
Text: as §1, §2

[30] = system: NCI-60 tumor cell line collection; experiment: NCI-60 in vitro drug sensitivity testing, whole panel; type: cell-based, human; conditions: for GI50: Homo sapiens, all 60 NCI-60 cell lines
Text: The NCI-60 tumor cell line collection is a panel of 60 diverse human cancer cell lines.
as §1, §2

Question: What does the source list for `CS(=O)(=O)N1CCN(Cc2cc3nc(-c4cccc5[nH]ncc45)nc(N4CCOCC4)c3s2)CC1` [GDC-0941]?
Answer: GI50 [1]: 209 nM; GI50 [2]: 204 nM; GI50 [3]: 1230 nM; GI50 [4]: 1150 nM; GI50 [5]: 138 nM; GI50 [6]: 26 nM; GI50 [7]: 209 nM; GI50 [8]: 83 nM; GI50 [9]: 3470 nM; GI50 [10]: 251 nM; GI50 [11]: 363 nM; GI50 [12]: 126 nM; GI50 [13]: 178 nM; GI50 [14]: 138 nM; GI50 [15]: 32 nM; GI50 [16]: 78 nM; GI50 [17]: 11 nM; GI50 [18]: 372 nM; GI50 [19]: 692 nM; GI50 [20]: 204 nM; GI50 [21]: 708 nM; GI50 [22]: 3470 nM; GI50 [23]: 58 nM; GI50 [24]: 741 nM; GI50 [25]: 14 nM; GI50 [26]: 83 nM; GI50 [27]: 110 nM; GI50 [28]: 117 nM; GI50 [29]: 1290 nM; GI50 ([30]; read-out: GI50 values, range over the panel): 11 to 3800 nM; GI50 ([30]; read-out: Mean GI50 for all cell lines): 660 nM; Anti-proliferative activity across the panel ([30]; nine tumor types represented in the NCI-60 cell line panel): broad anti-proliferative activity
